Values after ≈ are worked out from the molar mass of the structure shown. Each block holds one compound with its values, some of them ahead of it.
Columns and labels:
[1] = test system: NB4 (acute promyelocytic leukemia, AML); assay: Leukemia cell growth inhibition, MTT, 72 h (Example 5); type: cell-based, human; details: Homo sapiens; 72 h, MTT
How it was run: (§1)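 RPMI 1640 + 10% FBS, 6000 cells/well; tetrandrine derivatives at various concentrations; 37° C, 5% CO2, 72 h; viability by MTT.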

[2] = test system: Jurkat (acute lymphoblastic leukemia, ALL); assay: as above; type: cell-based, human; details: for IC50 / IC90: Homo sapiens, Jurkat, 72 h, MTT; for anti-Jurkat activity increase over tetrandrine: compared with tetrandrine
How it was run: as §1

[3] = test system: Kasumi-1 (acute myeloid leukemia M2 type, AML-M2); assay: as above; type: cell-based, human; details: Homo sapiens, Kasumi 1
How it was run: as §1

[4] = test system: K562/adr (drug-resistant, chronic myeloid leukemia, CML); assay: as above; type: cell-based, human; details: Homo sapiens, K562/Adr; 72 h, MTT
How it was run: as §1

[5] = test system: H9 (acute lymphoblastic leukemia, ALL); assay: as above; type: cell-based, human; details: Homo sapiens; 72 h, MTT
How it was run: as §1

[6] = test system: RPMI8226 (multiple myeloma); assay: Multiple myeloma cell growth inhibition, MTT, 72 h (Example 6); type: cell-based, human; details: Homo sapiens, RPMI-8226; 72 h, MTT, RPMI8226
How it was run: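 Viability was read by MTT after 72 h of compound exposure at 37 °C, 5% CO2. Each well held 6000 RPMI8226 cells in 1640 medium containing 10% fetal bovine serum, with derivatives added at various concentrations.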

MG63 (osteosarcoma) = assay: Solid tumor cell growth inhibition, MTT, 72 h (Example 7); type: cell-based, human; details: Homo sapiens; 72 h, MTT, MG-63
How it was run: (§2)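 Cell viability was quantified by MTT 72 h after adding derivatives at different concentrations to 4000 cells/well. Untreated cells served as the 100% reference.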

[7] = test system: Hep-2 (laryngeal carcinoma); assay: as above; type: cell-based, human; details: Homo sapiens; 72 h, MTT, Hep 2
How it was run: as §2

PC-3 (prostate cancer) = assay: as above; type: cell-based, human; details: Homo sapiens; 72 h, MTT, PC-3
How it was run: as §2

[8] = test system: PANC-1 (pancreatic cancer); assay: as above; type: cell-based, human; details: Homo sapiens; 72 h, MTT, PANC-1
How it was run: as §2

[9] = test system: CaES-17 (esophageal cancer cell); assay: as above; type: cell-based, human; details: Homo sapiens, CaEs17; 72 h, MTT, CAES-17
How it was run: as §2

[10] = test system: RKO (human colon adenocarcinoma cell); assay: as above; type: cell-based; details: Homo sapiens; 72 h, MTT, RKO
How it was run: as §2

[11] = test system: Becap37 (human breast cancer cell); assay: as above; type: cell-based; details: Homo sapiens; 72 h, MTT, Becap-37
How it was run: as §2

[12] = test system: Huh7 (human liver cancer cell); assay: as above; type: cell-based; details: Homo sapiens; 72 h, MTT, Huh-7
How it was run: as §2

[13] = test system: Hela (human cervical cancer cell); assay: as above; type: cell-based; details: Homo sapiens; 72 h, MTT, Hela
How it was run: as §2

[14] = test system: SK-OV-3 (ovarian cancer cell); assay: as above; type: cell-based; details: Homo sapiens
How it was run: as §2

A549 (human lung cancer) = assay: as above; type: cell-based; details: Homo sapiens; 72 h, MTT, A549
How it was run: as §2

[15] = test system: MGC 803 (human gastric cancer cell); assay: as above; type: cell-based; details: Homo sapiens
How it was run: as §2

[16] = test system: U87 MG (malignant glioma cell); assay: as above; type: cell-based; details: Homo sapiens, U-87 MG
How it was run: as §2

[17] = test system: CNE (nasopharyngeal carcinoma cell); assay: as above; type: cell-based; details: Homo sapiens
How it was run: as §2

IC50 [1]: 0.54 µg/mL (≈ 0.736 µM) | IC90 [1]: 1.5 µg/mL (≈ 2.04 µM) | IC50 [2]: 0.58 µg/mL (≈ 0.79 µM) | IC90 [2]: 3.79 µg/mL (≈ 5.16 µM) | IC50 [3]: 0.5 µg/mL (≈ 0.681 µM) | IC90 [3]: 2.68 µg/mL (≈ 3.65 µM) | IC50 [4]: 0.31 µg/mL (≈ 0.422 µM) | IC90 [4]: 2.05 µg/mL (≈ 2.79 µM) | IC50 [5]: 1.01 µg/mL (≈ 1.38 µM) | IC90 [5]: 2.3 µg/mL (≈ 3.13 µM) | IC50 [6]: 0.02 µg/mL (≈ 0.0272 µM) | IC90 [6]: 0.06 µg/mL (≈ 0.0817 µM) | IC50 (MG63 (osteosarcoma)): 0.8 µg/mL (≈ 1.09 µM) | IC90 (MG63 (osteosarcoma)): 1.5 µg/mL (≈ 2.04 µM) | IC50 [7]: 1.79 µg/mL (≈ 2.44 µM) | IC90 [7]: 6.83 µg/mL (≈ 9.31 µM) | IC50 (PC-3 (prostate cancer)): 2.92 µg/mL (≈ 3.98 µM) | IC90 (PC-3 (prostate cancer)): 4.9 µg/mL (≈ 6.68 µM) | IC50 [8]: 2.31 µg/mL (≈ 3.15 µM) | IC90 [8]: 8.26 µg/mL (≈ 11.3 µM) | IC50 [9]: 1.29 µg/mL (≈ 1.76 µM) | IC90 [9]: 7.23 µg/mL (≈ 9.85 µM) | IC50 [10]: 0.73 µg/mL (≈ 0.995 µM) | IC90 [10]: 1.9 µg/mL (≈ 2.59 µM) | IC50 [11]: 0.8 µg/mL (≈ 1.09 µM) | IC90 [11]: 2.3 µg/mL (≈ 3.13 µM) | IC50 [12]: 1.63 µg/mL (≈ 2.22 µM) | IC90 [12]: 2.49 µg/mL (≈ 3.39 µM) | IC50 [13]: 1.83 µg/mL (≈ 2.49 µM) | IC90 [13]: 5 µg/mL (≈ 6.81 µM) | IC50 [14]: 3.9 µg/mL (≈ 5.31 µM) | IC90 [14]: > 16 µg/mL | IC50 (A549 (human lung cancer)): 2.5 µg/mL (≈ 3.41 µM) | IC90 (A549 (human lung cancer)): 8 µg/mL (≈ 10.9 µM) | IC50 [15]: 0.9 µg/mL (≈ 1.23 µM) | IC90 [15]: 4.98 µg/mL (≈ 6.79 µM) | IC50 [16]: 0.19 µg/mL (≈ 0.259 µM) | IC90 [16]: 0.57 µg/mL (≈ 0.777 µM) | IC50 [17]: 2.5 µg/mL (≈ 3.41 µM) | IC90 [17]: 5.4 µg/mL (≈ 7.36 µM)
Structure (SMILES): COc1ccc2cc1Oc1ccc(cc1)C[C@H]1c3cc(c(OC)cc3CCN1C)Oc1c(OC)c(OC)c(CN3CCCC(C)C3)c3c1[C@H](C2)N(C)CC3 (some centres unmarked) [BS-TE-346]
anti-Jurkat activity increase over tetrandrine [2]: ~4 fold

IC50 [1]: 0.4 µg/mL (≈ 0.556 µM) | IC90 [1]: 1.4 µg/mL (≈ 1.94 µM) | IC50 [2]: 0.48 µg/mL (≈ 0.667 µM) | IC90 [2]: 4.52 µg/mL (≈ 6.28 µM) | IC50 [3]: 0.46 µg/mL (≈ 0.639 µM) | IC90 [3]: 2.55 µg/mL (≈ 3.54 µM) | IC50 [4]: 0.44 µg/mL (≈ 0.611 µM) | IC90 [4]: 8.5 µg/mL (≈ 11.8 µM) | IC50 [5]: 0.63 µg/mL (≈ 0.875 µM) | IC90 [5]: 1.96 µg/mL (≈ 2.72 µM) | IC50 [6]: 0.04 µg/mL (≈ 0.0556 µM) | IC90 [6]: 3.08 µg/mL (≈ 4.28 µM) | IC50 (MG63 (osteosarcoma)): 0.77 µg/mL (≈ 1.07 µM) | IC90 (MG63 (osteosarcoma)): 1.27 µg/mL (≈ 1.76 µM) | IC50 [7]: 3.22 µg/mL (≈ 4.47 µM) | IC90 [7]: 8.45 µg/mL (≈ 11.7 µM) | IC50 (PC-3 (prostate cancer)): 1.83 µg/mL (≈ 2.54 µM) | IC90 (PC-3 (prostate cancer)): 3.65 µg/mL (≈ 5.07 µM) | IC50 [8]: 2.27 µg/mL (≈ 3.15 µM) | IC90 [8]: 8.22 µg/mL (≈ 11.4 µM) | IC50 [9]: 1.42 µg/mL (≈ 1.97 µM) | IC90 [9]: 11 µg/mL (≈ 15.3 µM) | IC50 [10]: 0.25 µg/mL (≈ 0.347 µM) | IC90 [10]: 1.18 µg/mL (≈ 1.64 µM) | IC50 [11]: 0.76 µg/mL (≈ 1.06 µM) | IC90 [11]: 2.69 µg/mL (≈ 3.74 µM) | IC50 [12]: 1.28 µg/mL (≈ 1.78 µM) | IC90 [12]: 2.45 µg/mL (≈ 3.4 µM) | IC50 [13]: 2 µg/mL (≈ 2.78 µM) | IC90 [13]: 6.92 µg/mL (≈ 9.61 µM) | IC50 [14]: 3.5 µg/mL (≈ 4.86 µM) | IC90 [14]: > 16 µg/mL | IC50 (A549 (human lung cancer)): 3.4 µg/mL (≈ 4.72 µM) | IC90 (A549 (human lung cancer)): 14.9 µg/mL (≈ 20.7 µM) | IC50 [15]: 0.92 µg/mL (≈ 1.28 µM) | IC90 [15]: 12 µg/mL (≈ 16.7 µM) | IC50 [16]: 0.37 µg/mL (≈ 0.514 µM) | IC90 [16]: 1.16 µg/mL (≈ 1.61 µM) | IC50 [17]: 1.17 µg/mL (≈ 1.63 µM) | IC90 [17]: 3.64 µg/mL (≈ 5.06 µM)
Structure (SMILES): COc1ccc2cc1Oc1ccc(cc1)C[C@H]1c3cc(c(OC)cc3CCN1C)Oc1c(OC)c(OC)c(CN3CCCCC3)c3c1[C@H](C2)N(C)CC3 [BS-TE-355]
anti-Jurkat activity increase over tetrandrine [2]: ~4 fold

IC50 [1]: 0.7 µg/mL (≈ 0.933 µM) | IC90 [1]: 1.9 µg/mL (≈ 2.53 µM) | IC50 [2]: 1 µg/mL (≈ 1.33 µM) | IC90 [2]: 5.02 µg/mL (≈ 6.69 µM) | IC50 [3]: 0.76 µg/mL (≈ 1.01 µM) | IC90 [3]: 3.59 µg/mL (≈ 4.79 µM) | IC50 [4]: 0.82 µg/mL (≈ 1.09 µM) | IC90 [4]: 3.11 µg/mL (≈ 4.15 µM) | IC50 [5]: 0.72 µg/mL (≈ 0.96 µM) | IC90 [5]: 1.58 µg/mL (≈ 2.11 µM) | IC50 [6]: 0.09 µg/mL (≈ 0.12 µM) | IC90 [6]: 2.43 µg/mL (≈ 3.24 µM) | IC50 (MG63 (osteosarcoma)): 1.2 µg/mL (≈ 1.6 µM) | IC90 (MG63 (osteosarcoma)): 2 µg/mL (≈ 2.67 µM) | IC50 [7]: 3.07 µg/mL (≈ 4.09 µM) | IC90 [7]: 8.13 µg/mL (≈ 10.8 µM) | IC50 (PC-3 (prostate cancer)): 1.82 µg/mL (≈ 2.43 µM) | IC90 (PC-3 (prostate cancer)): 3.32 µg/mL (≈ 4.43 µM) | IC50 [8]: 1.87 µg/mL (≈ 2.49 µM) | IC90 [8]: 7.79 µg/mL (≈ 10.4 µM) | IC50 [9]: 1.38 µg/mL (≈ 1.84 µM) | IC90 [9]: 8.19 µg/mL (≈ 10.9 µM) | IC50 [10]: 0.45 µg/mL (≈ 0.6 µM) | IC90 [10]: 1.25 µg/mL (≈ 1.67 µM) | IC50 [11]: 1.08 µg/mL (≈ 1.44 µM) | IC90 [11]: 4.5 µg/mL (≈ 6 µM) | IC50 [12]: 1.3 µg/mL (≈ 1.73 µM) | IC90 [12]: 2.41 µg/mL (≈ 3.21 µM) | IC50 [13]: 1.25 µg/mL (≈ 1.67 µM) | IC90 [13]: 3.61 µg/mL (≈ 4.81 µM) | IC50 [14]: 3.5 µg/mL (≈ 4.67 µM) | IC90 [14]: > 16 µg/mL | IC50 (A549 (human lung cancer)): 3.9 µg/mL (≈ 5.2 µM) | IC90 (A549 (human lung cancer)): 16 µg/mL (≈ 21.3 µM) | IC50 [15]: 1.49 µg/mL (≈ 1.99 µM) | IC90 [15]: 7.42 µg/mL (≈ 9.89 µM) | IC50 [16]: 0.28 µg/mL (≈ 0.373 µM) | IC90 [16]: 0.67 µg/mL (≈ 0.893 µM) | IC50 [17]: 1.32 µg/mL (≈ 1.76 µM) | IC90 [17]: 3.84 µg/mL (≈ 5.12 µM)
Structure (SMILES): COc1ccc2cc1Oc1ccc(cc1)C[C@H]1c3cc(c(OC)cc3CCN1C)Oc1c(OC)c(OC)c(CN3CCCC(CO)C3)c3c1[C@H](C2)N(C)CC3 (some centres unmarked) [BS-TE-351]
